The values below come from ChEMBL document CHEMBL3865792, “Antioxidant and antitumor activity of trolox, trolox succinate, and α-tocopheryl succinate conjugates with nitroxides” (Eur J Med Chem, 2016).

Data set [1] is described as follows: Cytotoxicity against hamster AG17-1 cells assessed as reduction in cell viability after 72 hrs by MTT assay. It is filed as toxicity, cell-based, Cricetulus griseus. The following applies: Chinese hamster. (In general: Tetrazolium assays rely on reduction of a dye to a coloured formazan, in cell work by metabolically active cells.)
Data set [2] is described as follows: Cytotoxicity against human HepG2 cells assessed as reduction in cell viability at 300 uM after 72 hrs by MTT assay. It is filed as functional. The following applies: HepG2, 72 h.
Data set [3] can be described thus: Cytotoxicity against human MT4 cells assessed as reduction in cell viability after 72 hrs by MTT assay. It is filed as functional, cell-based. The conditions noted are these: MT4, 72 h.
A short description of data set [4]: Cytotoxicity against mouse LMTK cells assessed as reduction in cell viability at 300 uM after 72 hrs by MTT assay. It is filed as toxicity. The conditions noted are these: read-out: INH.
The nature of data set [5]: Ratio of IC50 for human CEM13 cells to concentration causing antioxidant activity in Salmonella typhimurium TA102 harboring […] mutant. It is filed as functional.
Data set [6] can be described thus: Cytotoxicity against human MCF7 cells assessed as reduction in cell viability after 72 hrs by MTT assay. The data set is classed as functional, cell-based. The following applies: MCF7, 72 h.
Data set [7] can be described thus: Cytotoxicity against human RPMI8226 cells assessed as reduction in cell viability after 72 hrs by MTT assay. It is filed as functional, cell-based. The following applies: RPMI-8226, 72 h.
The nature of data set [8]: Cytotoxicity against human U937 cells assessed as reduction in cell viability after 72 hrs by MTT assay. The data set is classed as functional, cell-based. The following applies: U-937, 72 h.
Data set [9] can be described thus: Cytotoxicity against human HepG2 cells assessed as reduction in cell viability after 72 hrs by MTT assay. The conditions noted are these: HepG2, 72 h. It is filed as functional, cell-based.
Data set [10] in a line: Cytotoxicity against human RPMI8226 cells assessed as reduction in cell viability at 300 uM after 72 hrs by MTT assay. The data set is classed as functional. The following applies: RPMI-8226, 72 h.
The nature of data set [11]: Ratio of IC50 for human U937 cells to concentration causing antioxidant activity in Salmonella typhimurium TA102 harboring […] mutant. The data set is classed as functional, U-937.
Data set [12] has as its system Salmonella enterica subsp. enterica serovar Typhimurium. In words: Antioxidant activity in Salmonella typhimurium TA102 harboring […] mutant assessed as inhibition of t-BuO2H-dependant mutant formation at 30 uM preincubated with compound followed by t-BuO2H addition after 48 hrs by Ames test. The data set is classed as functional. In general terms: The Ames test uses bacterial strains that need an amino acid and regain growth without it when mutated back.

Data set [13] is described as follows: Genotoxicity in Escherichia coli PQ37 expressing lacZ gene assessed as ratio of inducible beta-galactosidase activity to alkaline phosphatase activity at 30 mM after 2 hrs by SOS-chromotest relative to control. The conditions noted are these: Escherichia coli PQ37 cells expressing lacZ gene, read-out: FC. It is filed as toxicity.
Data set [14] is described as follows: Cytotoxicity against human CEM13 cells assessed as reduction in cell viability at 300 uM after 72 hrs by MTT assay. It is filed as functional. The conditions noted are these: CEM13, 72 h.
In the next data set the test system is Salmonella typhimurium. In words: Genotoxicity in Salmonella typhimurium TA102 harboring […] mutant assessed as frequency of reversion from histidine auxotrophy to prototrophy at 30 mM after 48 hrs by Ames test (reference value: 209 +/- 10 No _unit). The data set is classed as toxicity, organism-based. The conditions noted are these: salmonella enterica subsp. enterica serovar typhimurium, 30000 µM.

Data set [15] in a line: Ratio of IC50 for human RPMI8226 cells to concentration causing antioxidant activity in Salmonella typhimurium TA102 harboring […] mutant. The data set is classed as functional, RPMI-8226.
Data set [16] concerns Salmonella enterica subsp. enterica serovar Typhimurium. In words: Antioxidant activity in Salmonella typhimurium TA102 harboring […] mutant assessed as inhibition of t-BuO2H-dependant mutant formation at 0.3 uM preincubated with compound followed by t-BuO2H addition after 48 hrs by Ames test. The data set is classed as functional.
The test system is the same in data set [17]. Kind of data set: Antioxidant activity in Salmonella typhimurium TA102 harboring […] mutant assessed as inhibition of t-BuO2H-dependant mutant formation at 3 uM preincubated with compound followed by t-BuO2H addition after 48 hrs by Ames test. The data set is classed as functional.
Data set [18] is described as follows: Cytotoxicity against human CEM13 cells assessed as reduction in cell viability after 72 hrs by MTT assay. The data set is classed as functional, cell-based. The conditions noted are these: CEM13, 72 h.
Data set [19] is described as follows: Cytotoxicity against human MCF7 cells assessed as reduction in cell viability at 300 uM after 72 hrs by MTT assay. The following applies: MCF7, 72 h. It is filed as functional.
Data set [20] is described as follows: Cytotoxicity against mouse LMTK cells assessed as reduction in cell viability after 72 hrs by MTT assay. The data set is classed as toxicity.
A short description of data set [21]: Ratio of IC50 for human HEPG2 cells to concentration causing antioxidant activity in Salmonella typhimurium TA102 harboring […] mutant. The data set is classed as functional.
Data set [22] can be described thus: Ratio of IC50 for human MCF7 cells to concentration causing antioxidant activity in Salmonella typhimurium TA102 harboring […] mutant. It is filed as functional.
Data set [23] can be described thus: Cytotoxicity against hamster AG17-1 cells assessed as reduction in cell viability at 300 uM after 72 hrs by MTT assay. The following applies: Chinese hamster, read-out: INH. The data set is classed as toxicity, cell-based, Cricetulus griseus.
Data set [24] is described as follows: Ratio of IC50 for human MT4 cells to concentration causing antioxidant activity in Salmonella typhimurium TA102 harboring […] mutant. It is filed as functional.
Data set [25] can be described thus: Genotoxicity in Escherichia coli PQ37 expressing lacZ gene assessed as ratio of inducible beta-galactosidase activity to alkaline phosphatase activity at 3 mM after 2 hrs by SOS-chromotest relative to control. The data set is classed as toxicity. The following applies: Escherichia coli PQ37 cells expressing lacZ gene, read-out: FC.

Molecules are shown by their SMILES.

`Cc1c(C)c2c(c(C)c1OC(=O)CCC(=O)O)CCC(C)(C(=O)NC1CC(C)(C)N([O])C(C)(C)C1)O2` (centres undefined): the half-inhibitory concentration (IC50) at 72 h in [1] and in data set [20] was more than 300 µM each time. Further, the inhibition (in general, the relative decrease from the control value, in per cent) at 300 µM came out at 44% in data set [2], 14% in [10], 30% in data set [14] and 15% in data set [19]. In addition, the IC50 – broadly, the point on the concentration scale where inhibition reaches its midpoint – in data set [3] was 165 µM; in data set [6] it was more than 300 µM; in [7], more than 300 µM; in [8], 123 µM; in data set [9], more than 300 µM; in data set [18], more than 300 µM. In addition, the values for the cytotoxicity at 72 h, 300 µM in data set [4] and in [23] were 0% and 36%, respectively. The Ratio in data set [5], in data set [11], in data set [15], in data set [21], in data set [22] and in data set [24] was 100 - 1000 throughout. Also, the inhibition in [12] was 19%; in data set [16], 10%; in [17] it was 18%. In addition, the fold induction at 2 h, 30000 µM in data set [13] was 1.1. Moreover, the Activity with Salmonella typhimurium turned out to be 216.

`CC1(C)CC(NC(=O)CCC(=O)O)C(C)(C)N1[O]` (centres undefined): the IC50 at 72 h in [1] and in [20] was more than 300 µM throughout. The inhibition at 300 µM worked out at 0% in [2], 44% in data set [10] and 17% in data set [19]. Further, the 50% inhibitory concentration (IC50) in [3] was more than 400 µM; in [6], more than 300 µM; in [7] it was more than 300 µM; in data set [8] it was 241 µM; in data set [9] it was more than 300 µM; in data set [18] it was more than 400 µM. The results for the cytotoxicity at 72 h, 300 µM in [4] and in data set [23] were 0% and 19%, respectively. In addition, the Ratio in data set [5], in data set [11], in data set [15], in data set [21], in [22] and in data set [24] was 100 - 1000 each time. Moreover, the fold induction at 2 h, 3000 µM in [25] came to 1.2. For the same compound, the inhibition was determined as 52% in data set [12], 38% in data set [16] and 48% in [17]. For the same compound, the Activity with Salmonella typhimurium stood at 199.

As for `CC1(C)CC(CNC(=O)CCC(=O)O)C(C)(C)N1[O]` (centres undefined), the IC50 at 72 h in data set [1] and in [20] was more than 300 µM in each case. The results for the inhibition at 300 µM in data set [2], in [10] and in [19] were 0%, 13% and 24%, respectively. For the same compound, the IC50 in data set [3] was more than 400 µM; in data set [6], more than 300 µM; in data set [7], more than 300 µM; in [8], 282 µM; in data set [9], more than 300 µM; in [18] it was more than 400 µM. In addition, the cytotoxicity at 72 h, 300 µM in data set [4] and in [23] was 0% throughout. Besides, the Ratio in data set [5], in data set [11], in data set [15], in [21], in [22] and in [24] was 100 - 1000 throughout. The fold induction at 2 h, 3000 µM in data set [25] is 1.3. Also, the results for the inhibition in data set [12], in [16] and in data set [17] were 11%, 15% and 21%, respectively. For the same compound, the Activity in the data set on Salmonella typhimurium is on record as 219.

Turning to `Cc1c(C)c2c(c(C)c1OC(=O)CCC(=O)NC1CC(C)(C)N([O])C(C)(C)C1)CC[C@@](C)(CCC[C@H](C)CCC[C@H](C)CCCC(C)C)O2`, the IC50 at 72 h in [1] and in data set [20] was more than 300 µM throughout. Also, the inhibition at 300 µM in data set [2] amounted to 5%; in data set [10], 13%; in data set [19] it was 28%. Also, the IC50 in data set [3] was 53 µM; in data set [6], more than 300 µM; in data set [7], more than 300 µM; in data set [8], 76 µM; in data set [9], more than 300 µM; in data set [18] it was 146 µM. Further, the cytotoxicity at 72 h, 300 µM turned out to be 19% in [4] and 30% in [23]. Also, the Ratio in [5], in [11], in data set [15], in [21], in [22] and in [24] was 100 - 1000 in each case. Besides, the inhibition came to 20% in data set [12], 24% in [16] and 29% in data set [17]. The fold induction at 2 h, 30000 µM in data set [13] was determined as 1.1. In addition, in the data set with Salmonella typhimurium, the Activity is 222.

Consider `Cc1c(C)c2c(c(C)c1OC(=O)CCC(=O)NC1CC(C)(C)N([O])C1(C)C)CCC(C)(C(=O)NC1CC(C)(C)N([O])C1(C)C)O2` (centres undefined), for which the IC50 at 72 h in data set [1] is 166 µM; in data set [20], more than 300 µM. Moreover, the inhibition at 300 µM amounted to 15% in [2], 0% in [10] and 34% in [14]. The IC50 is 207 µM in data set [3]; 86 µM in [6]; more than 300 µM in [7]; 75 µM in data set [8]; more than 300 µM in [9]; more than 300 µM in [18]. In addition, the cytotoxicity at 72 h, 300 µM in data set [4] is 10%. The Ratio in data set [5], in data set [11], in data set [15], in data set [21], in data set [22] and in data set [24] was 100 - 1000 in each case. Also, the values for the inhibition in data set [12], in data set [16] and in data set [17] were 13%, 22% and 20%, respectively. In addition, the fold induction at 2 h, 30000 µM in data set [13] turned out to be 1.1. The Activity with Salmonella typhimurium worked out at 229.

`CC1(C)CC(NC(=O)CCC(=O)O)CC(C)(C)N1[O]`: the IC50 at 72 h in data set [1] and in data set [20] was more than 300 µM throughout. Besides, the inhibition at 300 µM in [2] amounted to 0%; in [10], 12%; in [19], 20%. Further, the IC50 is more than 400 µM in data set [3]; more than 300 µM in data set [6]; more than 300 µM in data set [7]; 170 µM in data set [8]; more than 300 µM in data set [9]; more than 400 µM in [18]. Moreover, the cytotoxicity at 72 h, 300 µM in [4] was 18%; in [23], 0%. The Ratio in [5], in data set [11], in [15], in data set [21], in data set [22] and in [24] was 100 - 1000 throughout. The fold induction at 2 h, 3000 µM in data set [25] is 1.3. Further, the inhibition in data set [12] worked out at 41%; in [16], 36%; in [17] it was 49%. Further, the Activity in the data set on Salmonella typhimurium came to 211.
